*1 amine or outer side, *2 acyl side, *3 side chain or, on linkers, in order; H or OH if unused. Where a SMILES comes first, the peptide text is derived from it. Bridges are numbered along the chain shown (N, C = ends). [ ]: non-standard residue; d: D form. The star is where a group is joined. hPhe(3-Cl-4-CF3) = N[C@@H](CCc1ccc(C(F)(F)F)c(Cl)c1)C(=O)O; X23 = CC(C)CN([C@@H](Cc1ccc(C(F)(F)F)cc1)C(=O)[*:2])[*:1]; X37 = O=C([C@H](Cc1ccc(C(F)(F)F)cc1)N(CC1CCC1)[*:1])[*:2]; X31 = O=C([C@H](Cc1ccc(C(F)(F)F)cc1)N(CC1CC1)[*:1])[*:2]; X17 = CCCCN([C@@H](Cc1ccc(C(F)(F)F)cc1)C(=O)[*:2])[*:1]; X41 = Cc1ccc(C[C@@H](C(=O)[*:2])N(CCC(F)(F)F)[*:1])cc1; X27 = Cc1ccc(C[C@@H](C(=O)[*:2])N(CC2CCCCC2)[*:1])cc1; X29 = Cc1ccc(C[C@@H](C(=O)[*:2])N(CC2CCCC2)[*:1])cc1; X43 = Cc1ccc(C[C@@H](C(=O)[*:2])N(CC2CCC2)[*:1])cc1; X26 = COCCCN([C@@H](Cc1ccc(C)cc1)C(=O)[*:2])[*:1]; X48 = C=CCCN([C@@H](Cc1ccc(C)cc1)C(=O)[*:2])[*:1]; X12 = COCCN([C@@H](Cc1ccc(C)cc1)C(=O)[*:2])[*:1]; X50 = C=CCN([C@@H](Cc1ccc(C)cc1)C(=O)[*:2])[*:1]; NMeGly(cPent) = CN[C@H](C(=O)O)C1CCCC1; NMeD = CN[C@@H](CC(=O)O)C(=O)O; NMeL = CN[C@@H](CC(C)C)C(=O)O; Morpholide = C1CN(*)CCO1; NMeA = CN[C@@H](C)C(=O)O; Ac5c = NC1(C(=O)O)CCCC1; Aze = O=C(O)[C@@H]1CCN1; Sar = CNCC(=O)O
How the values were obtained:
[1] = target: GDP-bound NRAS wild-type protein (Homo sapiens, UniProt P01111); test: Binding to NRAS by surface plasmon resonance (SPR), Single Cycle Kinetics; details: KD ratio NRAS/KRAS, SPR
Sequence of GDP-bound NRAS wild-type protein (P01111 whole entry): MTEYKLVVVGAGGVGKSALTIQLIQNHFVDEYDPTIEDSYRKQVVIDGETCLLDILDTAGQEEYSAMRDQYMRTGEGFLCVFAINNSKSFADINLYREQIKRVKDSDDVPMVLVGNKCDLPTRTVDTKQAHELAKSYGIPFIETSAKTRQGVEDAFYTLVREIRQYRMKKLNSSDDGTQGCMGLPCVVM

[2] = target: GDP-bound HRAS wild-type protein (Homo sapiens, UniProt P01112); test: Binding to HRAS by surface plasmon resonance (SPR), Single Cycle Kinetics; details: KD ratio HRAS/KRAS, SPR
Sequence of GDP-bound HRAS wild-type protein (P01112 whole entry): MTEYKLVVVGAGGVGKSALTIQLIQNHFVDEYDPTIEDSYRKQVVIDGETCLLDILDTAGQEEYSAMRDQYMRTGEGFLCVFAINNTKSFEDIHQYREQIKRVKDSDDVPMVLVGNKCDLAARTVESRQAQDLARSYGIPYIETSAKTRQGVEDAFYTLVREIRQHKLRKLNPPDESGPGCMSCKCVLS

Compound	NRAS/KRAS (ratio of KD for GDP-bound NRAS wild-type to KD for KRAS) [1]	HRAS/KRAS (ratio of KD for GDP-bound HRAS wild-type to KD for KRAS) [2]
CC[C@H](C)[C@@H]1NC(=O)[C@H](CC(C)C)N(C)C(=O)C[C@@H](C(=O)N2CCOCC2)N(C)C(=O)[C@H](C2CCCC2)N(C)C(=O)C2(CCCC2)NC(=O)[C@@H]2CCCN2C(=O)[C@H](CCc2ccc(C(F)(F)F)c(Cl)c2)NC(=O)CN(C)C(=O)[C@H](Cc2ccc(C)cc2)N(CCCOC)C(=O)[C@@H]2CCN2C(=O)[C@H](C)N(C)C1=O [PP0093] ([NMeL]I[NMeA][Aze][X26][Sar][hPhe(3-Cl-4-CF3)]P[Ac5c][NMeGly(cPent)][NMeD]-Morpholide; lactam N-11)	C (A compound having a KD ratio of 0.1 or more and less than 3 is denoted as C)	B (a compound having 3 or more and less than 10 is denoted as B)
CC[C@H](C)[C@@H]1NC(=O)[C@H](CC(C)C)N(C)C(=O)C[C@@H](C(=O)N2CCOCC2)N(C)C(=O)[C@H](C2CCCC2)N(C)C(=O)C2(CCCC2)NC(=O)[C@@H]2CCCN2C(=O)[C@H](CCc2ccc(C(F)(F)F)c(Cl)c2)NC(=O)CN(C)C(=O)[C@H](Cc2ccc(C)cc2)N(CC2CCC2)C(=O)CN(C)C(=O)CN(C)C1=O [PP0095] ([NMeL]I[Sar][Sar][X43][Sar][hPhe(3-Cl-4-CF3)]P[Ac5c][NMeGly(cPent)][NMeD]-Morpholide; lactam N-11)	C (A compound having a KD ratio of 0.1 or more and less than 3 is denoted as C)	C (A compound having a KD ratio of 0.1 or more and less than 3 is denoted as C)
CC[C@H](C)[C@@H]1NC(=O)[C@H](CC(C)C)N(C)C(=O)C[C@@H](C(=O)N2CCOCC2)N(C)C(=O)[C@H](C2CCCC2)N(C)C(=O)C2(CCCC2)NC(=O)[C@@H]2CCCN2C(=O)[C@H](CCc2ccc(C(F)(F)F)c(Cl)c2)NC(=O)CN(C)C(=O)[C@H](Cc2ccc(C)cc2)N(CC2CCCC2)C(=O)CN(C)C(=O)CN(C)C1=O [PP0096] ([NMeL]I[Sar][Sar][X29][Sar][hPhe(3-Cl-4-CF3)]P[Ac5c][NMeGly(cPent)][NMeD]-Morpholide; lactam N-11)	C (A compound having a KD ratio of 0.1 or more and less than 3 is denoted as C)	C (A compound having a KD ratio of 0.1 or more and less than 3 is denoted as C)
CC[C@H](C)[C@@H]1NC(=O)[C@H](CC(C)C)N(C)C(=O)C[C@@H](C(=O)N2CCOCC2)N(C)C(=O)[C@H](C2CCCC2)N(C)C(=O)C2(CCCC2)NC(=O)[C@@H]2CCCN2C(=O)[C@H](CCc2ccc(C(F)(F)F)c(Cl)c2)NC(=O)CN(C)C(=O)[C@H](Cc2ccc(C)cc2)N(CC2CCCCC2)C(=O)CN(C)C(=O)CN(C)C1=O [PP0097] ([NMeL]I[Sar][Sar][X27][Sar][hPhe(3-Cl-4-CF3)]P[Ac5c][NMeGly(cPent)][NMeD]-Morpholide; lactam N-11)	C (A compound having a KD ratio of 0.1 or more and less than 3 is denoted as C)	C (A compound having a KD ratio of 0.1 or more and less than 3 is denoted as C)
C=CCN1C(=O)CN(C)C(=O)CN(C)C(=O)[C@H]([C@@H](C)CC)NC(=O)[C@H](CC(C)C)N(C)C(=O)C[C@@H](C(=O)N2CCOCC2)N(C)C(=O)[C@H](C2CCCC2)N(C)C(=O)C2(CCCC2)NC(=O)[C@@H]2CCCN2C(=O)[C@H](CCc2ccc(C(F)(F)F)c(Cl)c2)NC(=O)CN(C)C(=O)[C@@H]1Cc1ccc(C)cc1 [PP0100] ([NMeL]I[Sar][Sar][X50][Sar][hPhe(3-Cl-4-CF3)]P[Ac5c][NMeGly(cPent)][NMeD]-Morpholide; lactam N-11)	B (a compound having 3 or more and less than 10 is denoted as B)	C (A compound having a KD ratio of 0.1 or more and less than 3 is denoted as C)
C=CCCN1C(=O)CN(C)C(=O)CN(C)C(=O)[C@H]([C@@H](C)CC)NC(=O)[C@H](CC(C)C)N(C)C(=O)C[C@@H](C(=O)N2CCOCC2)N(C)C(=O)[C@H](C2CCCC2)N(C)C(=O)C2(CCCC2)NC(=O)[C@@H]2CCCN2C(=O)[C@H](CCc2ccc(C(F)(F)F)c(Cl)c2)NC(=O)CN(C)C(=O)[C@@H]1Cc1ccc(C)cc1 [PP0101] ([NMeL]I[Sar][Sar][X48][Sar][hPhe(3-Cl-4-CF3)]P[Ac5c][NMeGly(cPent)][NMeD]-Morpholide; lactam N-11)	B (a compound having 3 or more and less than 10 is denoted as B)	C (A compound having a KD ratio of 0.1 or more and less than 3 is denoted as C)
CC[C@H](C)[C@@H]1NC(=O)[C@H](CC(C)C)N(C)C(=O)C[C@@H](C(=O)N2CCOCC2)N(C)C(=O)[C@H](C2CCCC2)N(C)C(=O)C2(CCCC2)NC(=O)[C@@H]2CCCN2C(=O)[C@H](CCc2ccc(C(F)(F)F)c(Cl)c2)NC(=O)CN(C)C(=O)[C@H](Cc2ccc(C)cc2)N(CCC(F)(F)F)C(=O)CN(C)C(=O)CN(C)C1=O [PP0103] ([NMeL]I[Sar][Sar][X41][Sar][hPhe(3-Cl-4-CF3)]P[Ac5c][NMeGly(cPent)][NMeD]-Morpholide; lactam N-11)	B (a compound having 3 or more and less than 10 is denoted as B)	C (A compound having a KD ratio of 0.1 or more and less than 3 is denoted as C)
CC[C@H](C)[C@@H]1NC(=O)[C@H](CC(C)C)N(C)C(=O)C[C@@H](C(=O)N2CCOCC2)N(C)C(=O)[C@H](C2CCCC2)N(C)C(=O)C2(CCCC2)NC(=O)[C@@H]2CCCN2C(=O)[C@H](CCc2ccc(C(F)(F)F)c(Cl)c2)NC(=O)CN(C)C(=O)[C@H](Cc2ccc(C)cc2)N(CCOC)C(=O)CN(C)C(=O)CN(C)C1=O [PP0104] ([NMeL]I[Sar][Sar][X12][Sar][hPhe(3-Cl-4-CF3)]P[Ac5c][NMeGly(cPent)][NMeD]-Morpholide; lactam N-11)	B (a compound having 3 or more and less than 10 is denoted as B)	C (A compound having a KD ratio of 0.1 or more and less than 3 is denoted as C)
CC[C@H](C)[C@@H]1NC(=O)[C@H](CC(C)C)N(C)C(=O)C[C@@H](C(=O)N2CCOCC2)N(C)C(=O)[C@H](C2CCCC2)N(C)C(=O)C2(CCCC2)NC(=O)[C@@H]2CCCN2C(=O)[C@H](CCc2ccc(C(F)(F)F)c(Cl)c2)NC(=O)CN(C)C(=O)[C@H](Cc2ccc(C)cc2)N(CCCOC)C(=O)CN(C)C(=O)CN(C)C1=O [PP0105] ([NMeL]I[Sar][Sar][X26][Sar][hPhe(3-Cl-4-CF3)]P[Ac5c][NMeGly(cPent)][NMeD]-Morpholide; lactam N-11)	B (a compound having 3 or more and less than 10 is denoted as B)	C (A compound having a KD ratio of 0.1 or more and less than 3 is denoted as C)
CCCCN1C(=O)[C@@H]2CCN2C(=O)[C@H](C)N(C)C(=O)[C@H]([C@@H](C)CC)NC(=O)[C@H](CC(C)C)N(C)C(=O)C[C@@H](C(=O)N2CCOCC2)N(C)C(=O)[C@H](C2CCCC2)N(C)C(=O)C2(CCCC2)NC(=O)[C@@H]2CCCN2C(=O)[C@H](CCc2ccc(C(F)(F)F)c(Cl)c2)NC(=O)CN(C)C(=O)[C@@H]1Cc1ccc(C(F)(F)F)cc1 [PP0106] ([NMeL]I[NMeA][Aze][X17][Sar][hPhe(3-Cl-4-CF3)]P[Ac5c][NMeGly(cPent)][NMeD]-Morpholide; lactam N-11)	C (A compound having a KD ratio of 0.1 or more and less than 3 is denoted as C)	B (a compound having 3 or more and less than 10 is denoted as B)
CC[C@H](C)[C@@H]1NC(=O)[C@H](CC(C)C)N(C)C(=O)C[C@@H](C(=O)N2CCOCC2)N(C)C(=O)[C@H](C2CCCC2)N(C)C(=O)C2(CCCC2)NC(=O)[C@@H]2CCCN2C(=O)[C@H](CCc2ccc(C(F)(F)F)c(Cl)c2)NC(=O)CN(C)C(=O)[C@H](Cc2ccc(C(F)(F)F)cc2)N(CC(C)C)C(=O)[C@@H]2CCN2C(=O)[C@H](C)N(C)C1=O [PP0107] ([NMeL]I[NMeA][Aze][X23][Sar][hPhe(3-Cl-4-CF3)]P[Ac5c][NMeGly(cPent)][NMeD]-Morpholide; lactam N-11)	C (A compound having a KD ratio of 0.1 or more and less than 3 is denoted as C)	C (A compound having a KD ratio of 0.1 or more and less than 3 is denoted as C)
CC[C@H](C)[C@@H]1NC(=O)[C@H](CC(C)C)N(C)C(=O)C[C@@H](C(=O)N2CCOCC2)N(C)C(=O)[C@H](C2CCCC2)N(C)C(=O)C2(CCCC2)NC(=O)[C@@H]2CCCN2C(=O)[C@H](CCc2ccc(C(F)(F)F)c(Cl)c2)NC(=O)CN(C)C(=O)[C@H](Cc2ccc(C(F)(F)F)cc2)N(CC2CC2)C(=O)[C@@H]2CCN2C(=O)[C@H](C)N(C)C1=O [PP0108] ([NMeL]I[NMeA][Aze][X31][Sar][hPhe(3-Cl-4-CF3)]P[Ac5c][NMeGly(cPent)][NMeD]-Morpholide; lactam N-11)	C (A compound having a KD ratio of 0.1 or more and less than 3 is denoted as C)	C (A compound having a KD ratio of 0.1 or more and less than 3 is denoted as C)
CC[C@H](C)[C@@H]1NC(=O)[C@H](CC(C)C)N(C)C(=O)C[C@@H](C(=O)N2CCOCC2)N(C)C(=O)[C@H](C2CCCC2)N(C)C(=O)C2(CCCC2)NC(=O)[C@@H]2CCCN2C(=O)[C@H](CCc2ccc(C(F)(F)F)c(Cl)c2)NC(=O)CN(C)C(=O)[C@H](Cc2ccc(C(F)(F)F)cc2)N(CC2CCC2)C(=O)[C@@H]2CCN2C(=O)[C@H](C)N(C)C1=O [PP0109] ([NMeL]I[NMeA][Aze][X37][Sar][hPhe(3-Cl-4-CF3)]P[Ac5c][NMeGly(cPent)][NMeD]-Morpholide; lactam N-11)	C (A compound having a KD ratio of 0.1 or more and less than 3 is denoted as C)	B (a compound having 3 or more and less than 10 is denoted as B)

— US20250230193A1, “CYCLIC COMPOUND HAVING SELECTIVE KRAS INHIBITORY EFFECT ON HRAS AND NRAS” (CHUGAI SEIYAKU KABUSHIKI KAISHA, priority 2022, published 2025)
